What was measured:
KRas G12D mutant = test: Ras GTP Binding Domain Inhibition Assay (Ras Superfamily Assay); conditions: 20 μM compound; for KRas G12D mutant + SOS: % inh.: with SOS; for KRas G12D mutant: % inh.: without SOS
Summary of the method: (§1)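 Binding of 100 nM fluorescent GTP (Cy3 or Cy5, 45 min, room temperature) was read after washes from plate-captured His-tagged protein. Beforehand, compounds at 20 μM or in dilution series for IC50 sat 3 h on the protein in Tris buffer pH 7.4 or 7.0 with 1% DMSO, Sos GEF optionally added for the last hour.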

Rac-1 = target: T1, Rac-1 (Homo sapiens, UniProt P63000); test: as above; conditions: read-out: Rac-1: % inh.
T1 construct: made in house
Summary of the method: as §1

KRas wild type = test: as above; conditions: 20 μM compound; for KRas wild type + SOS: % inh.: with SOS; for KRas wild type: % inh.: without SOS
Summary of the method: as §1

[1] = system: Smad2/Smad3 phosphorylation; test: Phospho-Smad2/3 Inhibition Assay (western blot), Panc-1; type: cell-based, human; conditions: at 10 μM, Panc-1 pancreatic cancer cell line; starred symbols = activation
Summary of the method: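 Western blotting of lysates (15-50 μg protein) read phosphorylation of Smad2 Ser465/467 and Smad3 Ser423/425. Before lysis, Panc-1 cells got 1 h of 10 ng/ml TGF-b1 following 3 h compound exposure at 37° C (10 μM final, or serial dilutions for IC50, 0.3% DMSO) after overnight 0.5% FBS starvation.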

IL6 = test: IL-6 Quantification Assay (ELISA), LPS-stimulated RAW 264.7; type: cell-based; set-up: inhibition: dose or concentration left out as unconfirmed; conditions: Mus musculus, RAW264.7; read-out: IL-6: % inh.
TNF-alpha = TNF-alpha Quantification Assay (ELISA), LPS-stimulated RAW 264.7; type: cell-based; conditions: Mus musculus, RAW264.7; at 10 μM; read-out: TNFα: % inh.

Structure (SMILES) | KRas G12D mutant + SOS: % inh. (KRas G12D mutant) | KRas G12D mutant: % inh. (KRas G12D mutant) | inhibition at 20 µM (Rac-1) [%] | KRas wild type + SOS: % inh. (KRas wild type) | KRas wild type: % inh. (KRas wild type) | % inh of Smad2/3 phosphorylation in Panc-1 [1] | inhibition (IL6) [%] | inhibition at 10 µM (TNF-alpha) [%]
COc1ccnc(Nc2nc(-c3nccn3C)nn3cc(-c4cccnc4)c(C)c23)c1 [Compound 157, N-(4-Methoxy-pyridin-2-yl)-5-methyl-2-(1-methyl-1H-imidazol-2-yl)-6-(pyridin-3-yl)pyrrolo[2,1-f][1,2,4]triazin-4-amine] | D (D = 76-100% inhibition) | D (D = 76-100% inhibition) | 76 to 100 | D (D = 76-100% inhibition) | D (D = 76-100% inhibition) | B* (B* = 26-45% activation) | 1 to 24 | 0
Cc1c(-c2ccn(C3CC3)n2)cn2nc(-c3nccn3C)nc(Nc3cc(OCCCO)ccn3)c12 [Compound 149, 3-((2-((6-(1-Cyclopropyl-1H-pyrazol-3-yl)-5-methyl-2-(1-methyl-1H-imidazol-2-yl)pyrrolo[2,1-f][1,2,4]triazin-4-yl)amino)pyridin-4-yl)oxy)propan-1-ol] | D (D = 76-100% inhibition) | D (D = 76-100% inhibition) | 76 to 100 | D (D = 76-100% inhibition) | D (D = 76-100% inhibition) | A (A = 1-25% inhibition) | 75 to 100 | 75 to 100
Cc1c(-c2ccn(C)n2)cn2nc(-c3nccn3C)nc(Cl)c12 [Compound 99, 4-Chloro-5-methyl-2-(1-methyl-1H-imidazol-2-yl)-6-(1-methyl-1H-pyrazol-3-yl)pyrrolo[2,1-f][1,2,4]triazine] | B (B = 26-49% inhibition) | B (B = 26-49% inhibition) | 50 to 75 | B (B = 26-49% inhibition) | C (C = 50-75% inhibition) | D (D = 76-100% inhibition) | 75 to 100 | 75 to 100
Cc1c(-c2ccn(C)n2)cn2nc(-c3nccn3C)nc(Nc3ncccn3)c12.Cl [Compound 115, 5-Methyl-2-(1-methyl-1H-imidazol-2-yl)-6-(1-methyl-1H-pyrazol-3-yl)-N-(pyrimidin-2-yl)pyrrolo[2,1-f][1,2,4]triazin-4-amine hydrochloride salt] | C (C = 50-75% inhibition) | C (C = 50-75% inhibition) | 1 to 25 | C (C = 50-75% inhibition) | D (D = 76-100% inhibition) | A (A = 1-25% inhibition) | 50 to 74 | 0
Cc1c(-c2ccn(C(C)C)n2)cn2nc(-c3nccn3C)nc(Nc3ncc[nH]3)c12 [Compound 125, N-(1H-Imidazol-2-yl)-6-(1-isopropyl-1H-pyrazol-3-yl)-5-methyl-2-(1-methyl-1H-imidazol-2-yl)pyrrolo[2,1-f][1,2,4]triazin-4-amine] | C (C = 50-75% inhibition) | C (C = 50-75% inhibition) | 50 to 75 | B (B = 26-49% inhibition) | C (C = 50-75% inhibition) | B (B = 26-45% inhibition) | 50 to 74 | 1 to 24
COc1cc(-c2cn3nc(-c4nccn4C)nc(N[C@@H]4CC[C@@H](OC)C4)c3c2C)ccn1 (racemic) [Compound 163, rac N-((1R,3R)-3-Methoxycyclopentyl)-6-(2-methoxypyridin-4-yl)-5-methyl-2-(1-methyl-1H-imidazol-2-yl)pyrrolo[2,1-f][1,2,4]triazin-4-amine] | 0 (0 = 0% inhibition) | 0 (0 = 0% inhibition) | 0 | 0 (0 = 0% inhibition) | 0 (0 = 0% inhibition) | B (B = 26-45% inhibition) | 75 to 100 | 1 to 24
COc1cc(Nc2nc(-c3nccn3C)nn3cc(-c4cccnc4)c(-c4ccccn4)c23)ncn1 [Compound 167, N-(6-Methoxypyrimidin-4-yl)-2-(1-methyl-1H-imidazol-2-yl)-5-(pyridin-2-yl)-6-(pyridin-3-yl)pyrrolo[2,1-f][1,2,4]triazin-4-amine] | A (A = 1-25% inhibition) | B (B = 26-49% inhibition) | 1 to 25 | A (A = 1-25% inhibition) | A (A = 1-25% inhibition) | 0 (0 = 0% inhibition) | 0 | 0
COc1cnc(Nc2nc(-c3nccn3C)nn3cc(-c4ccn(C)n4)c(C)c23)cn1 [Compound 110, N-(5-Methoxypyrazin-2-yl)-5-methyl-2-(1-methyl-1H-imidazol-2-yl)-6-(1-methyl-1H-pyrazol-3-yl)pyrrolo[2,1-f][1,2,4]triazin-4-amine] | B (B = 26-49% inhibition) | C (C = 50-75% inhibition) | 50 to 75 | C (C = 50-75% inhibition) | B (B = 26-49% inhibition) | A* (A* = 1-25% activation) | 1 to 24 | 1 to 24
COc1cc(Nc2nc(-c3nccn3C)nn3cc(-c4ccn(C(C)C)n4)c(C)c23)ncn1 [Compound 6, 6-(1-Isopropyl-1H-pyrazol-3-yl)-N-(6-methoxypyrimidin-4-yl)-5-methyl-2-(1-methyl-1H-imidazol-2-yl)pyrrolo[2,1-f][1,2,4]triazin-4-amine] | C (C = 50-75% inhibition) | D (D = 76-100% inhibition) | 50 to 75 | C (C = 50-75% inhibition) | D (D = 76-100% inhibition) | 0 (0 = 0% inhibition) | 75 to 100 | 25 to 49
COc1ccnc(Nc2nc(-c3nccn3C)nn3cc(-c4ccn(C5CC5)n4)c(C)c23)c1 [Compound 137, 6-(1-Cyclopropyl-1H-pyrazol-3-yl)-N-(4-methoxypyridin-2-yl)-5-methyl-2-(1-methyl-1H-imidazol-2-yl)pyrrolo[2,1-f][1,2,4]triazin-4-amine] | B (B = 26-49% inhibition) | C (C = 50-75% inhibition) | 50 to 75 | B (B = 26-49% inhibition) | C (C = 50-75% inhibition) | C (C = 46-75% inhibition) | 1 to 24 | 1 to 24
CO[C@H]1CC[C@@H](Nc2nc(-c3nccn3C)nn3cc(-c4cccnc4)c(C)c23)C1 (racemic) [Compound 155, rac N-((1R,3S)-3-methoxy-cyclopentyl)-5-methyl-2-(1-methyl-1H-imidazol-2-yl)-6-(pyridin-3-yl)pyrrolo[2,1-f][1,2,4]triazin-4-amine] | A (A = 1-25% inhibition) | A (A = 1-25% inhibition) | 1 to 25 | A (A = 1-25% inhibition) | A (A = 1-25% inhibition) | A (A = 1-25% inhibition) | 25 to 49 | 0
Cc1c(-c2ccn(C)n2)cn2nc(-c3nccn3C)nc(Nc3cc(OCC(F)(F)F)ccn3)c12 [Compound 129, 5-Methyl-2-(1-methyl-1H-imidazol-2-yl)-6-(1-methyl-1H-pyrazol-3-yl)-N-(4-(2,2,2-trifluoroethoxy)pyridin-2-yl)pyrrolo[2,1-f][1,2,4]triazin-4-amine] | B (B = 26-49% inhibition) | B (B = 26-49% inhibition) | 26 to 49 | B (B = 26-49% inhibition) | B (B = 26-49% inhibition) | D* (D* = 76-100% activation) | 50 to 74 | 1 to 24
Cc1c(-c2ccn(C)n2)cn2nc(-c3nccn3C)nc(Nc3ccn(C4CC4)n3)c12 [Compound 111, N-(1-Cyclopropyl-1H-pyrazol-3-yl)-5-methyl-2-(1-methyl-1H-imidazol-2-yl)-6-(1-methyl-1H-pyrazol-3-yl)pyrrolo[2,1-f][1,2,4]triazin-4-amine] | B (B = 26-49% inhibition) | B (B = 26-49% inhibition) | 26 to 49 | A (A = 1-25% inhibition) | C (C = 50-75% inhibition) | D* (D* = 76-100% activation) | 75 to 100 | 50 to 74

— patent US12459951B2, “Compounds that interact with RAS superfamily proteins for treatment of cancers, inflammatory diseases, rasopathies, and fibrotic disease” (SHY Therapeutics, LLC, priority 2022, dated 2025)
